Measured values as given in US8334316B2, “Substituted organosulfur compounds and methods of using thereof” (ACEA Biosciences, Inc., priority 2004, dated 2012).
“And” between values parts separate entries of the source, which are not always exact repeats. Equal entries are not always repeated. Marks after values point to notes of the source that are not given here.

Tests used:
[1] = system: purified bovine brain tubulin; test: In vitro microtubule dynamics (dynamic instability) assay, video microscopy; type: biochemical; settings: plus ends, steady state
Description: Tubulin Purification and Microtubule Dynamics Assays. Tubulin was purified, as described in the literature (“Kinetic stabilization of microtubule dynamic instability in vitro by vinblastine”, Toso, R. J., Jordan, […]., Matsumoto, B. and Wilson, L., Biochemistry, 1993, 32, 1285-1293). Briefly, microtubule-associated protein-rich bovine brain microtubule protein was prepared by three cycles of assembly and disassembly. Tubulin was purified from other microtubule proteins by elution through a Whatman P-11 phosphocellulose column equilibrated in PEM50 (50 mM Pipes, 1 mM MgSO4, 1 mM EGTA, 0.1 mM GTP). Purified tubulin (>99% pure) was drop-frozen in liquid nitrogen and stored at -70° C. […] The dynamics of individual microtubules were recorded at 37° C. using differential interference contrast enhanced video microscopy. The ends were designated as plus or minus on the basis of the growth rate, the number of microtubules that grew at opposite ends of the seeds, and the relative lengths of the microtubules (Panda, D., Goode, […]. and Wilson, L., Kinetic stabilization of microtubule dynamics at steady state by tau and microtubule-binding domains of tau, Biochemistry, 1995, 34, 11117-11127; Walker, R. A., O'Brien, […]., Voter, W. A., Erickson, H. P. and Salmon, E. D., Dynamic instability of individual microtubules analyzed by video light microscopy: rate constants and transition frequencies, J. Cell Biol. 1988, 107, 1437-1448). Plus ends were analyzed for 10 minutes per slide during the steady-state phase of polymerization ( 45 min after initiation of polymerization). Life histories of individual microtubules were collected as described by Panda et al. 1995 (Panda, D., Goode, […]. and Wilson, L., Kinetic stabilization of microtubule dynamics at steady state by tau and microtubule-binding domains of tau, Biochemistry, 1995, 34 11117-11127) with modifications. Data points were collected at 1-3 s intervals. […] Average rates, lengths and durations are the averages of independent events. The catastrophe frequency was calculated by dividing the number of shortening events by the total time of growth and attenuation tracked, and rescue frequency was calculated by dividing the number of rescue events by the total time of shortening tracked. To control for experimental error, each condition was filmed over multiple days using at least two distinct tubulin/GTP mixtures (2-3 slides each). No gross variation in microtubule dynamics was observed between mixtures or slides of a given condition. The concentration of drug used in dynamic instability assays was chosen by initially observing microtubules stabilized with half the concentration used in microtubule assembly assays.

[2] = system: microtubules in COS cells; test: Microtubule network in cultured COS cells (anti-tubulin immunofluorescence, confocal microscopy); type: cell-based
Description: Cell Culture and Immunocytochemistry. COS cells were grown in DMEM media supplemented with non-essential amino acids, 10% FBS, antibiotic-antimycotic (Gibco BRL) at 37° C. and 5.5% CO2. […] Cells were then rinsed once with warm PBS, fixed with cold methanol, rinsed again in PBS and blocked overnight at 4° C. in PBT (PBS, 1% BSA, 0.5% Triton X-100). All subsequent stains and washes were done in PBT at room temperature unless stated otherwise. Cells were stained with the anti-tubulin mouse antibody DM-1 at 1:1000 for 1 hour, washed four times for 15 minutes each and then treated with Cy-3 conjugated goat anti mouse antibody at 1:100 for 1 hour in the dark. Next, samples were washed four times for 15 minutes each in PBT in the dark followed by a final 15 minute wash in PBS in the dark. Samples were then viewed by laser scanning confocal microscopy.

[3] = system: Bcap-37 human breast cancer; test: Bcap-37 human breast cancer xenograft in nude mice, dosing from 24 h after transplantation (Example 3); type: in vivo
Excerpt: (§1) Both male and female mice were used. […] Test control. […] Preparation and Administration of Test Compounds. […] For human tumor xenograft model, all used materials, including animal food, animal cage, supporting materials and apparatus contacted by animals, were high-pressure sterilized. Nude mice were maintained in laminar flow shelves under SPF condition. After tumor transplantation, mouse weight and tumor size in each compound dosage group were dynamically monitored and plotted.

[4] = system: HCT-8 human colon cancer; test: HCT-8 human colon cancer xenograft in nude mice (Example 3); type: in vivo; settings: 10 mg/kg/d iv x7 qd
Excerpt: as §1

[5] = 10 mg/kg iv x7 qd, 7 days after transplantation

Cc1cccc(CSSSCc2cccc(C)c2)c1 [ACEA100116, di(m-methylbenzyl)trisulfide]
Effect on length of growth events [1]: little effect upon the length of growing events
Effect on length of shortening events [1]: strong effect upon the length of shortening events
Effect on microtubule growth rate [1]: increased the growth rate
Effect on rate of shortening [1]: no effect upon the rate of shortening
Microtubule network appearance ([2]; 4 hours exposure): at the two higher concentrations, microtubules appear very short and abnormal
Microtubule network / cell appearance ([2]; 24 hours, 1 uM): appear relatively normal
Cell viability ([2]; 24 hours, 3 uM or 9 uM): essentially all cells treated with 3 uM or 9 uM were dead

CC(=O)O[C@H]1C(=O)[C@@]2(C)[C@H]([C@H](OC(=O)c3ccccc3)[C@]3(O)C[C@H](OC(=O)[C@H](O)[C@@H](NC(=O)c4ccccc4)c4ccccc4)C(C)=C1C3(C)C)[C@]1(OC(C)=O)CO[C@@H]1C[C@@H]2O [Taxol, paclitaxel, reference compound]
Microtubule network appearance ([2]; 4 hours exposure): Microtubules appear bundled in some locations
Microtubule network appearance ([2]; 24 hours exposure, increasing dosage): increased bundling and the short microtubules persist
Mice with palpable tumor / total mice [3, 5]: 4/6††
Tumor volume (cm^3) [3, 5]: 0.01 cm^3
Tumor volume (cm^3) ([3]; 10 mg/kg iv x7 qd, 14 d): 0.065 ± 0.02 cm^3
Tumor volume (cm^3) ([3]; 10 mg/kg iv x7 qd, 21 d): 0.249 ± 0.07 cm^3
Tumor volume (cm^3) ([3]; 10 mg/kg iv x7 qd, 24 d (end)): 0.685 cm^3 and 0.685 ± 0.14 cm^3
TV inhibition rate % T/C ([3]; 10 mg/kg/d iv x7 qd): 39.05%
Tumor weight ([3]; 10 mg/kg/d iv x7 qd): 0.88 ± 0.17 g
Body weight of mice ([3]; 10 mg/kg/d iv x7 qd, 0 day (beginning)): 18.1 g and 18.1 ± 1.1 g
Body weight of mice ([3]; 10 mg/kg/d iv x7 qd, 7 day): 19.7 ± 1 g
tumor inhibition rate % ([3]; 10 mg/kg/d iv x7 qd, vs solvent control): 48.84%
TV inhibition rate % T/C [4]: 44.45%
Tumor weight [4]: 1.02 ± 0.11 g
Mice with palpable tumor / total mice ([4]; 7 day after transplantation): 6/6††
Tumor volume (cm^3) ([4]; 7 day after transplantation): 0.01 cm^3
Tumor volume (cm^3) ([4]; 14 d): 0.116 ± 0.03 cm^3
Tumor volume (cm^3) ([4]; 25 d (end)): 0.694 cm^3 and 0.694 ± 0.15 cm^3
tumor inhibition rate % ([4]; vs solvent control): 33.33%
